Data: patent US10940151B2, “Methods for treating renal disease” (Beth Israel Deaconess Medical Center, Inc., priority 2012, dated 2021)
Entries after “also recorded” stand apart in the source; their conditions may differ.

Assays:
Assay type in all cases: cell-based
[1] = test system: APOL1 expression in endothelial cells; test: APOL1 expression in endothelial cells treated with TLR3 agonist poly(I:C) and inhibitors; conditions: TLR3 agonist poly(I:C) (FIG. 8-13)
Method: Endothelial cells were treated with the TLR3 agonist poly(I:C) and with JAK inhibitors (FIGS. 8A-8D), Bx795(a TBK1/IKKe inhibitor) (FIG. 9), and chloroquine (FIG. 10). […] The TBK1/IKK e complex is used by both TLR and Rig-like receptor signaling mechanisms, and therefore offers a broader target for inhibition of APOL1 expression than either pathway alone. Chloroquine and similar class of compounds may be particularly useful for inhibiting APOL1 expression when that expression is driven by endosomal pattern recognition receptors such as TLR3, TLR7, TLR8, TLR9, and in some cases TLR4. Even though TLR3 expression is described above as an example, these strategies are likely to be effective in blocking APOL1 expression driven by multiple inflammatory stimuli.
Endothelial cells were treated with the TLR3 agonist poly(I:C) and with NF-κB inhibitors (FIG. 11), PKR inhibitors (FIG. 12), and MAP kinase inhibitors (FIG. 13).

[2] = test system: APOL1 mRNA expression in endothelial cells; test: APOL1 mRNA expression in endothelial cells after stimulation with interferons, TLR/RIG agonists or bacterial DNA; conditions: interferon stimulation (FIG. 3A, 3B)
Text: HIV is a powerful inducer of APOL1 renal disease in individuals with the renal risk genotype. Other viruses such as parvovirus have been associated with FSGS. […] Cells have extracellular, endosomal, and cytoplasmic viral sensors such as TLRs, Rig-L1, and others. These genes are potential targets for reducing APOL1 expression.

[3] = test system: APOL1 expression in podocytes; test: APOL1 expression in podocytes treated with TLR3 agonist poly(I:C) and inhibitors; conditions: podocytes (not shown)
[4] = test system: APOL1 mRNA expression in endothelial cells; test: APOL1 mRNA expression in endothelial cells treated with interferon beta and JAK inhibitors; conditions: interferon beta (FIG. 4A-4C)
Text: JAK inhibitors are in clinical testing for autoimmune disease, transplant immunosuppression, and myelodysplastic syndromes. They are selective, rather than specific, for individual JAK inhibitors. For example, WHI-P131 targets JAK3, INCB018424 (ruxolitinib) targets […] and JAK2, and TG101348 targets JAK2.

APOL1 expression = test: shRNA knockdown experiments on poly(I:C)-induced APOL1 upregulation; conditions: polyI:C versus control, GFP virus control (FIG. 14)
Text: To validate pharmacologic targets that may regulate pathogenic APOL1 expression, we used shRNA to determine specific genes that mediate the APOL1 upregulation induced by poly(I:C). These experiments allowed us to confirm targets identified above by pharmacologic methods and to identify additional known targets in these same pathways. […] The data shown in FIG. 14 validates several pathways identified by the pharmacological experiments described above and identifies additional pathways that can be targeted to decrease pathogenic APOL1 expression.

## CCN(CC)CCCC(C)Nc1ccnc2cc(Cl)ccc12 (stereo not shown) [chloroquine]
[1]
  effect on poly(I:C) induced APOL1 upregulation (in words): reduced the poly(I:C) induced increased in APOL1 expression

## O=C(NCCCNc1nc(Nc2cccc(NC(=O)N3CCCC3)c2)ncc1I)c1cccs1 [Bx795]
[1]
  effect on poly(I:C) induced APOL1 upregulation (in words): reduced the poly(I:C) induced increased in APOL1 expression

## interferon gamma: type 2 (gamma) interferon
[2]
  upregulation of APOL1: up to 200 fold

## Oc1c2ccccc2c2c3c(cccc13)N=N2 [SP600125]
[3]
  inhibition of APOL1 expression: 50%

## CC(C)(C)c1ccc(S(=O)(=O)/C=C/C#N)cc1 [Bay 11-7085]
[1]
  effect on poly(I:C) induced APOL1 upregulation (in words): could be inhibited

## Nc1ccc2ncnc(NCCc3ccc(Oc4ccccc4)cc3)c2c1 [6A4Q, 6-amino-4-(4-phenoxyphenylethylamino) quinazoline]
[1]
  effect on poly(I:C) induced APOL1 upregulation (in words): could be inhibited

## Cc1cnc(Nc2ccc(OCCN3CCCC3)cc2)nc1Nc1cccc(S(=O)(=O)NC(C)(C)C)c1 [TG101348]
[4]
  effect on APOL1 upregulation caused by interferon beta (in words): block the potentially pathologic upregulation of APOL1

## N#CC[C@H](C1CCCC1)n1cc(-c2ncnc3[nH]ccc23)cn1 [INCB018424]
[4]
  effect on APOL1 upregulation caused by interferon beta (in words): block the potentially pathologic upregulation of APOL1

## C[S+]([O-])c1ccc(-c2nc(-c3ccncc3)c(-c3ccc(F)cc3)[nH]2)cc1 (stereo not shown) [SB203580]
[1]
  effect on poly(I:C) induced APOL1 upregulation (in words): inhibited blocked poly(I:C) induced APOL1 upregulation; also recorded: inhibited APOL1 expression

## polyI:C
APOL1 expression
  stimulation of APOL1 expression (in words): strongly stimulates APOL1 expression

## COc1cc2ncnc(Nc3ccc(O)cc3)c2cc1OC [WHI-P131]
[4]
  effect on APOL1 upregulation caused by interferon beta (in words): block the potentially pathologic upregulation of APOL1

## O=C1Nc2ccc3ncsc3c2/C1=C/c1c[nH]cn1 [imidazolo-oxindole PKR inhibitor]
[1]
  effect on poly(I:C) induced APOL1 upregulation (in words): blocks APOL1 upregulation
[1]; listed as drawing 4
  effect on poly(I:C) induced APOL1 upregulation (in words): completely blocked poly(I:C) induced APOL1 upregulation
